Reference: patent publication US20260035364A1, “BICYCLIC TETRAHYDROTHIAZEPINE DERIVATIVES” (Hoffmann-La Roche Inc., priority 2022, published 2026)
pEC50: −log10 of the molar value. Where two headings read alike, the source gives them in different places.

System: primary human T-cells
Assay: IL2 secretion measurements in CD3-stimulated T-cells
Assay type: cell-based
Details: CD3 condition; for Emax / Emax IL2 (% activation): IL2 after 24 hours, 20 μM reference compound A1 = 100%; for Emax: read-out: Emax IL2 (% activation); for pEC50: IL2 secretion after 24 hours, read-out: Tcell IL2 CD3 EC50
Summary of the method: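 Expanded primary human T-cells (100k/well) were stimulated on CD3 antibody-coated or PBS-coated plates with compounds in 5–6 point dose response from 20 or 10 μM top final (dilution factor 3.333, 0.2% DMSO final). IL2 in 24 h supernatants was measured by ProQuantum immunoassay or ELISA, normalized to DMSO (0%) and 20 μM reference compound A1 (100%) to fit EC50 and Emax.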

pEC50 (Homo sapiens, T-cell, 24 h)	pEC50	SMILES	Emax (Homo sapiens, T-cell, 24 h) [%]	Emax IL2 (% activation) [%]
6.49	–	CC(C)(c1nc(-c2cc3c(cc2F)S(=O)(=O)C[C@H](N)C(=O)N3Cc2ccc(OC(F)(F)F)cc2)no1)S(C)(=O)=O [Example 44, (3R)-3-amino-8-fluoro-7-[5-(1-methyl-1-methylsulfonyl-ethyl)-1,2,4-oxadiazol-3-yl]-1,1-dioxo-5-[[4-(trifluoromethoxy)phenyl]methyl]-2,3-dihydro-1λ6,5-benzothiazepin-4-one]	192	–
6.71	–	CC(C)(c1nc(-c2cc3c(cc2F)S(=O)(=O)C[C@H](N)C(=O)N3Cc2ccc(-c3noc(C4CC4)n3)cc2)no1)S(C)(=O)=O [Example 45, (3R)-3-amino-5-[[4-(5-cyclopropyl-1,2,4-oxadiazol-3-yl)phenyl]methyl]-8-fluoro-7-[5-(1-methyl-1-methylsulfonyl-ethyl)-1,2,4-oxadiazol-3-yl]-1,1-dioxo-2,3-dihydro-1λ6,5-benzothiazepin-4-one]	190	–
6.31	–	CC(C)(c1nc(-c2cc3c(cc2F)S(=O)(=O)C[C@H](N)C(=O)N3Cc2ccc(-c3noc(C(F)(F)F)n3)cc2)no1)S(C)(=O)=O [Example 46, (3R)-3-amino-8-fluoro-7-[5-(1-methyl-1-methylsulfonyl-ethyl)-1,2,4-oxadiazol-3-yl]-1,1-dioxo-5-[[4-[5-(trifluoromethyl)-1,2,4-oxadiazol-3-yl]phenyl]methyl]-2,3-dihydro-1λ6,5-benzothiazepin-4-one]	317	–
5.86	–	CC(C)(c1nnc(-c2ccc3c(c2)N(Cc2ccc(Oc4cccc(OC(F)F)c4)cc2)C(=O)[C@@H](N)CS3(=O)=O)o1)S(C)(=O)=O [Example 47, (3R)-3-amino-5-[[4-[3-(difluoromethoxy)phenoxy]phenyl]methyl]-7-[5-(1-methyl-1-methylsulfonyl-ethyl)-1,3,4-oxadiazol-2-yl]-1,1-dioxo-2,3-dihydro-1λ6,5-benzothiazepin-4-one]	135	–
5.98	–	CC(C)(c1nc(-c2cc3c(cc2F)S(=O)(=O)C[C@H](N)C(=O)N3Cc2ccc(Oc3ccccc3)nc2)no1)S(C)(=O)=O [Example 48, (3R)-3-amino-8-fluoro-7-[5-(1-methyl-1l-methylsulfonyl-ethyl)-1,2,4-oxadiazol-3-yl]-1,1-dioxo-5-[(6-phenoxy-3-pyridyl)methyl]-2,3-dihydro-1 λ6,5-benzothiazepin-4-one]	165	–
< 5.00	–	COc1ccc(-c2ccc(CN3C(=O)[C@@H](N)CS(=O)(=O)c4ccc(-c5nnc(C(C)(C)S(C)(=O)=O)o5)cc43)cc2)c(C)c1 [Example 49, (3R)-3-amino-5-[[4-(4-methoxy-2-methyl-phenyl)phenyl]methyl]-7-[5-(1-methyl-1-methylsulfonyl-ethyl)-1,3,4-oxadiazol-2-yl]-1,1-dioxo-2,3-dihydro-1λ6,5-benzothiazepin-4-one]	34	–
6.67	–	COc1ccc(-c2ccc(CN3C(=O)[C@@H](N)CS(=O)(=O)c4cc(F)c(-c5noc(C(C)(C)S(C)(=O)=O)n5)cc43)cc2)cc1 [Example 50, (3R)-3-amino-8-fluoro-5-[[4-(4-methoxyphenyl)phenyl]methyl]-7-[5-(1-methyl-1-methylsulfonyl-ethyl)-1,2,4-oxadiazol-3-yl]-1,1-dioxo-2,3-dihydro-1λ6,5-benzothiazepin-4-one]	99	–
6.05	–	CC(C)(c1nc(-c2cc3c(cc2F)[S+]([O-])C[C@H](N)C(=O)N3Cc2ccc(Oc3ccccc3)cc2)no1)S(C)(=O)=O (stereo partly drawn) [Example 51, (3R)-3-amino-8-fluoro-7-[5-(1-methyl-1-methylsulfonyl-ethyl)-1,2,4-oxadiazol-3-yl]-1-oxo-5-[(4-phenoxyphenyl)methyl]-2,3-dihydro-1λ4,5-benzothiazepin-4-one]	–	101
–	5.93	CC(C)(c1nc(-c2cc3c(cc2F)[S+]([O-])C[C@H](N)C(=O)N3Cc2ccc(Oc3ccccc3)cc2)no1)S(C)(=O)=O (stereo partly drawn) [Example 52, (3R)-3-amino-8-fluoro-7-[5-(1-methyl-1-methylsulfonyl-ethyl)-1,2,4-oxadiazol-3-yl]-1-oxo-5-[(4-phenoxyphenyl)methyl]-2,3-dihydro-1λ4,5-benzothiazepin-4-one]	–	253
5.36	–	CC(C)(c1nc(-c2cc3c(cc2F)S(=O)(=O)C[C@H](N)C(=O)N3Cc2ccc(C3CCOCC3)cc2)no1)S(C)(=O)=O [Example 53, (3R)-3-amino-8-fluoro-7-[5-(1-methyl-1-methylsulfonyl-ethyl)-1,2,4-oxadiazol-3-yl]-1,1-dioxo-5-[(4-tetrahydropyran-4-ylphenyl)methyl]-2,3-dihydro-1λ6,5-benzothiazepin-4-one]	96	–
5.98	–	CS(=O)(=O)Cn1nnc(-c2cc3c(cc2F)S(=O)(=O)C[C@H](N)C(=O)N3Cc2ccc(Oc3ccccc3)cc2)n1 [Example 54, (3R)-3-amino-8-fluoro-7-[2-(methylsulfonylmethyl)tetrazol-5-yl]-1,1-dioxo-5-[(4-phenoxyphenyl)methyl]-2,3-dihydro-1λ6,5-benzothiazepin-4-one]	132	–
5.38	–	CS(=O)(=O)Cn1nnnc1-c1cc2c(cc1F)S(=O)(=O)C[C@H](N)C(=O)N2Cc1ccc(Oc2ccccc2)cc1 [Example 55, (3R)-3-amino-8-fluoro-7-[1-(methylsulfonyl-methyl)tetrazol-5-yl]-1,1-dioxo-5-[(4-phenoxyphenyl)methyl]-2,3-dihydro-1λ6,5-benzothiazepin-4-one]	85	–
6.13	–	CC(C)(c1nnc(-c2ccc3c(c2)N(Cc2ccc(-c4ccc(C(F)(F)F)cc4)cc2)C(=O)[C@@H](N)CS3(=O)=O)o1)S(C)(=O)=O [Example 56, (3R)-3-amino-7-[5-(1-methyl-1-methylsulfonyl-ethyl)-1,3,4-oxadiazol-2-yl]-1,1-dioxo-5-[[4-[4-(trifluoromethyl)phenyl]phenyl]methyl]-2,3-dihydro-1λ6,5-benzothiazepin-4-one]	120	–
5.04	–	CC(C)(c1nnc(-c2ccc3c(c2)N(Cc2ccc(-c4ccc(C(F)(F)F)cc4)nc2)C(=O)[C@@H](N)CS3(=O)=O)o1)S(C)(=O)=O [Example 57, (3R)-3-amino-7-[5-(1-methyl-1-methylsulfonyl-ethyl)-1,3,4-oxadiazol-2-yl]-1,1-dioxo-5-[[6-[4-(trifluoromethyl)phenyl]-3-pyridyl]methyl]-2,3-dihydro-1λ6,5-benzothiazepin-4-one]	53	–
5.53	–	CC1(c2nnc(-c3ccc4c(c3)N(Cc3ccc(Oc5ccccc5)cc3)C(=O)[C@@H](N)CS4(=O)=O)o2)CCCS1(=O)=O (stereo partly drawn) [Example 58, (3R)-3-amino-7-[5-(2-methyl-1,1-dioxo-thiolan-2-yl)-1,3,4-oxadiazol-2-yl]-1,1-dioxo-5-[(4-phenoxyphenyl)methyl]-2,3-dihydro-1λ6,5-benzothiazepin-4-one]	136	–
5.37	–	CC(C)(c1nc(-c2cc3c(cc2F)S(=O)(=O)C[C@H](N)C(=O)N3Cc2ccc(OCc3nc(C(F)(F)F)no3)cc2)no1)S(C)(=O)=O [Example 59, (3R)-3-amino-8-fluoro-7-[5-(1-methyl-1-methylsulfonyl-ethyl)-1,2,4-oxadiazol-3-yl]-1,1-dioxo-5-[[4-[[3-(trifluoromethyl)-1,2,4-oxadiazol-5-yl]methoxy]phenyl]methyl]-2,3-dihydro-1λ6,5-benzothiazepin-4-one]	135	–
5.93	–	CC(C)(c1nnc(-c2ccc3c(c2)N(Cc2ccc(Oc4cccc(Br)c4)cc2)C(=O)[C@@H](N)CS3(=O)=O)o1)S(C)(=O)=O [Example 60, (3R)-3-amino-5-[[4-(3-bromophenoxy)phenyl]methyl]-7-[5-(1-methyl-1-methylsulfonyl-ethyl)-1,3,4-oxadiazol-2-yl]-1,1-dioxo-2,3-dihydro-1λ6,5-benzothiazepin-4-one]	106	–
5.38	–	CC(C)(c1nnc(-c2ccc3c(c2)N(Cc2ccc(Oc4ccccc4)cc2)C(=O)[C@@H](N)CS3(=O)=O)o1)S(=O)(=O)C1CC1 [Example 61, (3R)-3-amino-7-[5-(1-cyclopropylsulfonyl-1-methyl-ethyl)-1,3,4-oxadiazol-2-yl]-1,1-dioxo-5-[(4-phenoxyphenyl)methyl]-2,3-dihydro-1λ6,5-benzothiazepin-4-one]	89	–
5.48	–	COCC(C)(C)Oc1ccc(CN2C(=O)[C@@H](N)CS(=O)(=O)c3cc(F)c(-c4noc(C(C)(C)S(C)(=O)=O)n4)cc32)cc1 [Example 62, (3R)-3-amino-8-fluoro-5-[[4-(2-methoxy-1,1-dimethyl-ethoxy)phenyl]methyl]-7-[5-(1-methyl-1-methylsulfonyl-ethyl)-1,2,4-oxadiazol-3-yl]-1,1-dioxo-2,3-dihydro-benzothiazepin-4-one]	169	–
6.42	–	COc1ccc(-c2ccc(CN3C(=O)[C@@H](N)CS(=O)(=O)c4ccc(-c5noc(C(C)(C)S(C)(=O)=O)n5)cc43)cc2)cc1 [Example 63, (3R)-3-amino-5-[[4-(4-methoxyphenyl)phenyl]methyl]-7-[5-(1-methyl-1-methylsulfonyl-ethyl)-1,2,4-oxadiazol-3-yl]-1,1-dioxo-2,3-dihydro-1λ6,5-benzothiazepin-4-one]	57	–
5.60	–	CC(C)(c1nnc(-c2ccc3c(c2)N(Cc2ccc(OC(F)(F)F)cc2)C(=O)[C@@H](N)CS3(=O)=O)o1)S(C)(=O)=O [Example 64, (3R)-3-amino-7-[5-(1-methyl-1-methylsulfonyl-ethyl)-1,3,4-oxadiazol-2-yl]-1,1-dioxo-5-[[4-(trifluoromethoxy)phenyl]methyl]-2,3-dihydro-126,5-benzothiazepin-4-one]	55	–
